# From US20230141988A1, “PHARMACEUTICAL COMPOSITION FOR USE IN THE TREATMENT OF NEUROLOGICAL DISEASES” (Aclipse One Inc., priority 2020, published 2023)
# Several values for one entry are separate records, joined by “and”; a condition that tells them apart may be missing. Identical values can stand only once. Like-named read-outs stand apart in the source and are kept apart here.
# Tests used:
# [1] = Solubility in aqueous media / aqueous buffer solutions; type: physicochemical; details: free base, aqueous media at various pH values
# in vivo = details: male, cynomolgus monkey, po, 10 mg/kg, Plasma concentration, fed male Cynomolgus Monkeys
# Method: Three male Cynomolgus Monkeys were administrated a single oral dose at 10 mg/kg. The oral vehicle was 10% (w/v) HP-β-CD in water.
# Male Cynomolgus Monkeys were purchased from Topgene Biotechnology. The animals were 2-5 years old with body weights of 2.0-5.0 kg on the dosing date. The animals were housed in a 12-hour light/12-hour dark cycle environment and had free access to food and water.
# All animals for PO administration were fasted overnight prior to dosing and will be fed approximately 2 hours after dosing.
# Three male Cynomolgus Monkeys were assigned to this study. […] The dosing regimens and formulation (vehicle) compositions are described in the following table below:
# Animals were weighed prior to dose administration on the day of dosing for calculating the actual dose volume. The dosages were prepared as illustrated in the table below:
# Blood samples were taken at the following times:
# Whole blood samples were gently inverted several times to ensure anticoagulation then placed on wet ice prior to centrifugation. Within 30 minutes of collection, the samples were centrifuged at approximately 4,000×g (force) for 5 minutes at 2 to 8° C. to obtain plasma. The stabilizing agent, ascorbic acid at 200 mg/mL, was added in a proportion of 10% in plasma. The plasma samples were stored in a freezer at −75±15° C. prior to analysis. The completion time from collection was less than 60 min. The resultant plasma samples will be immediately separated divided into 2 aliquots (˜75 μL each) and transferred to cryogenic vial. Samples will be maintained on wet ice throughout processing, and stored in a freezer at −75±15° C. prior to analysis. Samples should be protected from ambient light (under sodium lamp).
# Calibration standard working solutions were prepared at concentrations of 2, 5, 10, 20, 100, 500, 1000, 5000, 10000 ng/mL by serial dilution of the standard stock solution in 1:1 acetonitrile:water. Quality control working solutions at concentrations of 5, 10, 20, 500 and 8000 ng/mL were prepared by serial dilution of the standard stock solution in 1:1 acetonitrile:water. The QC samples were prepared on the day of analysis in the same way as calibration standards.
# Samples were prepared with 5 μL of each calibration standard working solution (2, 5, 10, 20, 100, 500, 1000, 5000, 10000 ng/mL) added to 50 μL of the blank Cynomolgus Monkeys plasma to achieve calibration standards concentrations of 0.2, 0.5, 1, 2, 10, 50, 100, 500, 1000 ng/mL (relative to a 50-4, plasma aliquot). Quality Control (QC) samples at 0.5 ng/mL (low-1), 1 ng/mL (low-2), 2 ng/mL (low-3), 50 ng/mL (mid) and 800 ng/mL (high) for plasma were prepared independently for those used for the calibration curves.
# Total volumes of 55 μL of standards, 55 μL of QC samples and 55 μL of unknown samples (50 μL of plasma with 5 μL of 1:1 acetonitrile:water) were added to 200 μL of acetonitrile containing IS to precipitate proteins. Then the samples were vortexed for 30 sec. […] All of the samples were processed on ice.
# The LC-MS/MS system consisted of two Shimadzu LC-30AD pumps, a DGU-20A5R degasser, a Rack changer II and an AB Sciex Triple Quad 5500 LC/MS/MS mass spectrometer. Chromatographic separation was performed on Agilent ZORBAX XDB-Phenyl 5 μm (50×2.1 mm) at room temperature. The mobile phase was composed of A: 5% Acetonitrile/95% water (0.1% Formic acid); B: 95% Acetonitrile/5% water (0.1% Formic acid). The flow rate was 0.6 mL/min. The injection volume was 2 μL.
# A multiple reaction monitoring (MRM) method was selected for quantitative analysis. […] The instrument parameters were set as follows: ion spray voltage: 5500 V; curtain gas: 40 psi; ion source gas 1: 50 psi; ion source gas 2: 50 psi; temperature: 450° C. The compound dependent parameters are listed as follows:
# HPLC flow rate was set at 0.6 mL/min with the following conditions:
# [2] = Plasma and CSF pharmacokinetic study, single sublingual, oral or subcutaneous dose, male Beagle dogs; type: in vivo
# Method: Animals were fed twice daily. […] Food was withheld until 4-hour post-dose.
# All blood samples were collected from a peripheral vessel.
# For CSF collection, a polypropylene tube was first weighted to accuracy of 0.1 mg (weight #1). CSF was collected in the tube and weighted again (weight #2). Total CSF weight was calculated by subtracting weight #1 from weight #2. Samples were kept on ice and protected from sunlight. Stabilizing agent (ascorbic acid 200 mg/mL) was added within 60 minutes in a proportion of 10% in CSF. Frozen CSF samples on dry ice were stored at −60° C. or lower until bioanalysis.
# All CSF samples were added with the equal volume of plasma. […] 30 μL supernatant was then mixed with 30 μL water, vortex-mixed well and centrifuged at 4° C.
# Dilution procedure description: Dilution factor as 5—An aliquot of 2 μL sample was added with 8 μL blank matrix.
# The flow rate was 0.6 mL/min. The injection volume was 3 μL. The following gradient was implemented: […]
# [3] = male Beagle dogs (fasted), single SL 5 mg/kg, plasma, individual dogs
# [4] = male, beagle, dog, in vivo, 5 mg/kg, CSF concentration
# [5] = male, beagle, dog, in vivo, 5 mg/kg, plasma concentration
# [6] = male, beagle, dog, in vivo, po, 10 mg/kg, CSF concentration
# [7] = male, beagle, dog, in vivo, po, 10 mg/kg, plasma concentration
# [8] = male, beagle, dog, in vivo, sc, 1 mg/kg, CSF concentration
# [9] = male, beagle, dog, in vivo, sc, 1 mg/kg, plasma concentration
structure (smiles),measurement,setting,value
CN1CCc2cccc3c2[C@@H]1Cc1ccc(O)c(O)c1-3,solubility,[1],low solubilities
same,concentration at 0.5 h,in vivo; animal 168777C,4.15 ng/mL
same,concentration at 0.5 h,in vivo; animal 168779C,1.26 ng/mL
same,concentration at 0.5 h,in vivo; animal 169939C,0.975 ng/mL
same,concentration at 1 h,"in vivo; 1 h, animal 169939C",2.81 ng/mL
same,concentration at 2 h,in vivo; animal 168777C,6.27 ng/mL
same,concentration at 2 h,in vivo; animal 168779C,6.27 ng/mL
same,concentration at 4 h,in vivo; animal 168779C,8.04 ng/mL
same,concentration at 4 h,in vivo; animal 169939C,5.91 ng/mL
same,concentration at 8 h,"in vivo; 8 h, animal 168777C",1.13 ng/mL
same,MRT inf,"[2]; dog, in vivo, male Beagle dogs (fasted), single PO 10 mg/kg, plasma, individual dogs",8.44 h
same,MRT inf,"[2]; dog, in vivo, male Beagle dogs (fasted), single SL 5 mg/kg, CSF, mean",3.18 h
same,Kp,"[2]; dog, in vivo, male Beagle dogs (fasted), single SL 5 mg/kg, individual dogs, read-out: AUC Ratio (AUClast ratio of CSF to total plasma)",0.337
same,AUC(0-inf),"[2]; dog, in vivo, male Beagle dogs (fasted), single SL 5 mg/kg, plasma, mean, read-out: AUCinf",162 ng·h/mL
same,AUMCExtra,"[2]; male Beagle dogs (fasted), single PO 10 mg/kg, plasma, individual dogs, 10 mg/kg",31.9%
same,AUMCExtra,"[2]; male Beagle dogs (fasted), single SL 5 mg/kg, CSF, individual dogs",5.44% and 18.5%
same,AUCExtra,[2]; [3],7.39%
same,AUMCExtra,[2]; [3],10.7%
same,AUC(0-inf),"[2]; male, beagle, dog, CSF, po, 10 mg/kg, male Beagle dogs (fasted), single PO 10 mg/kg, CSF, individual dogs, read-out: AUCinf",181 ng·h/mL
same,Kp,"[2]; male, beagle, dog, in vivo, 5 mg/kg, AUClast ratio of CSF to total plasma",1.08 ± 0.964
same,concentration at 2 h,[2]; [4],76.2 ng/mL
same,concentration at […],[2]; [4],289 ng/mL
same,AUC(0-t),"[2]; male, beagle, dog, in vivo, 5 mg/kg, male Beagle dogs (fasted), single SL 5 mg/kg, CSF, individual dogs",122 ng·h/mL
same,AUC(0-t),"[2]; male, beagle, dog, in vivo, 5 mg/kg, male Beagle dogs (fasted), single SL 5 mg/kg, CSF, mean",162 ng·h/mL
same,Cmax,"[2]; male, beagle, dog, in vivo, 5 mg/kg, male Beagle dogs (fasted), single SL 5 mg/kg, plasma, individual dogs, read-out: Cmax",162 ng/mL
same,Cmax,"[2]; male, beagle, dog, in vivo, 5 mg/kg, maximum CSF concentration (Cmax)",126 ± 144 ng/mL
same,Cmax,"[2]; male, beagle, dog, in vivo, 5 mg/kg, maximum plasma concentration (Cmax)",143 ± 24 ng/mL
same,concentration at 0.5 h,[2]; [5],162 ng/mL
same,concentration at 1 h,[2]; [5],116 ng/mL
same,concentration at 2 h,[2]; [5],10.8 ng/mL
same,concentration at 4 h,[2]; [5],3.39 ng/mL
same,concentration at 8 h,[2]; [5],2.74 ng/mL
same,concentration at […],[2]; [5],151 ng/mL
same,concentration at 0.5 h,"[2]; male, beagle, dog, in vivo, 5 mg/kg, single SL 5 mg/kg, 0.500 h, individual animal, read-out: CSF concentration",6.23 ng/mL
same,concentration at 8 h,"[2]; male, beagle, dog, in vivo, 5 mg/kg, single SL 5 mg/kg, 8.00 h, individual animal, read-out: CSF concentration",1.16 ng/mL
same,concentration at 24 h,"[2]; male, beagle, dog, in vivo, 5 mg/kg, single SL 5 mg/kg, 24.0 h, individual animal, read-out: plasma concentration",1.49 ng/mL
same,plasma concentration,"[2]; male, beagle, dog, in vivo, po, 10 mg/kg, 1 h",63.3 ng/mL
same,Kp,"[2]; male, beagle, dog, in vivo, po, 10 mg/kg, AUC Ratio (AUClast ratio of CSF to total plasma)",0.33
same,Kp,"[2]; male, beagle, dog, in vivo, po, 10 mg/kg, AUClast ratio of CSF to total plasma",0.27 ± 0.0663
same,concentration at 0.5 h,[2]; [6],48.5 ng/mL
same,concentration at 4 h,[2]; [6],8.15 ng/mL
same,concentration at […],[2]; [6],24.7 ng/mL
same,Tmax,"[2]; male, beagle, dog, in vivo, po, 10 mg/kg, Tmax",0.5 h
same,Cmax,"[2]; male, beagle, dog, in vivo, po, 10 mg/kg, male Beagle dogs (fasted), single PO 10 mg/kg, plasma, individual dogs, read-out: Cmax",84.8 ng/mL
same,concentration at 0.5 h,[2]; [7],78 ng/mL
same,concentration at 1 h,[2]; [7],42.2 ng/mL
same,concentration at 2 h,[2]; [7],22.9 ng/mL
same,concentration at 4 h,[2]; [7],15.6 ng/mL
same,concentration at 8 h,[2]; [7],9.36 ng/mL
same,concentration at 24 h,[2]; [7],4.5 ng/mL
same,concentration at […],[2]; [7],9.2 ng/mL
same,concentration at 0.5 h,"[2]; male, beagle, dog, in vivo, po, 10 mg/kg, single PO 10 mg/kg, 0.500 h, individual animal, read-out: CSF concentration",17.8 ng/mL
same,concentration at 4 h,"[2]; male, beagle, dog, in vivo, po, 10 mg/kg, single PO 10 mg/kg, 4.00 h, individual animal, read-out: CSF concentration",12.4 ng/mL
same,plasma concentration,"[2]; male, beagle, dog, in vivo, sc, 1 mg/kg, 1 h",20.7 ng/mL
same,plasma concentration,"[2]; male, beagle, dog, in vivo, sc, 1 mg/kg, 2 h",2.17 ng/mL
same,Kp,"[2]; male, beagle, dog, in vivo, sc, 1 mg/kg, AUC Ratio",0.806
same,AUC(0-inf),"[2]; male, beagle, dog, in vivo, sc, 1 mg/kg, AUCinf",88.4 ± 23.8 ng·h/mL
same,Kp,"[2]; male, beagle, dog, in vivo, sc, 1 mg/kg, AUClast ratio of CSF to total plasma",0.964 ± 0.456
same,concentration at 0.033 h,[2]; [8],1.73 ng/mL
same,concentration at 0.5 h,[2]; [8],15.6 ng/mL
same,concentration at 2 h,[2]; [8],6.55 ng/mL
same,concentration at 8 h,[2]; [8],10.8 ng/mL
same,AUC(0-t),"[2]; male, beagle, dog, in vivo, sc, 1 mg/kg, CSF, single SC 1 mg/kg, individual animal",119 ng·h/mL
same,Cmax,"[2]; male, beagle, dog, in vivo, sc, 1 mg/kg, plasma Cmax",110 ± 19.4 ng/mL
same,concentration at 0.5 h,[2]; [9],76.6 ng/mL
same,concentration at 1 h,[2]; [9],27.9 ng/mL
